Assay results published in patent US5891620A, “Steroid sulfatase assay” (Imperial College of Science, Technology and Medicine, priority 1994, dated 1999).

System: Oestrone sulphatase activity in human white blood cells
Assay: Oestrone sulphatase activity in white blood cells of volunteers after an oral dose of inhibitor
Format: in vivo
Details: two healthy male volunteers; single oral dose 0.5 mg/Kg; white blood cells from blood samples taken for up to 28 days
Procedure: Purified leukocytes (according to Tulchinsky JCEM 65, 1026, 1987) from 10 ml whole blood are suspended in 1 ml PBS-sucrose. 0.2 ml of this is used for EST assay as above (incubated for 2 hr at 37° C. in a final volume of 1 ml).
After incubation, samples are extracted with 4 ml toluene. 2 ml of this is counted in 10 ml Scintillant.
The assay of the present invention, as described above, was investigated using two healthy, male volunteers whom received an oral dose of a steroid sulphatase inhibitor (Oestrone-3-O-sulphamate, 0.5 mg/Kg). In this regard, white blood cells were prepared from blood samples obtained from the subjects for up to 28 days. […] The results from this study confirm that the measurement of Oestrone Sulphatase activity in white blood cells will therefore allow the extent and duration of sulphatase inhibition to be monitored in subjects receiving steroid sulphatase inhibitors therapeutically. More details and results of these studies are shown in the attached FIG. 30. […] In particular, the assay of the present invention allows one to measure oestrone sulphatase activity in human white blood cells to monitor the extent of oestrone sulphatase inhibition.

## C[C@]12CC[C@@H]3c4ccc(OS(N)(=O)=O)cc4CC[C@H]3[C@@H]1CCC2=O [Oestrone-3-O-sulphamate]
  inhibition of Oestrone sulphatase activity in white blood cells: significant inhibition
